{
  "source": "patent US12534439B2",
  "about": "“Xanthohumol derivatives and methods for making and using” (Oregon State University, priority 2021, dated 2026)",
  "system": "LPS-activated RAW 264.7 cells",
  "assay": "Nitric oxide (NO) assay, Griess reagent",
  "format": "cell-based",
  "conditions": "LPS 1 μg/mL, 24 hours",
  "procedure": "Nitric Oxide (NO) Assay. NO secreted by LPS-activated RAW 264.7 cells into the culture medium was determined as nitrite by the Griess reagent. RAW 264.7 1 cells obtained from the American Type Culture Collection (Manassas, VA, USA) were cultured in DMEM supplemented with 2 mM glutamine, antibiotics (100 U/mL penicillin and 100 μg/mL streptomycin), and 10% heat-inactivated fetal bovine serum. The cells were initially grown in 75 cm^2 culture flasks at 37° C. in a humidified incubator with 5% CO2. After reaching 80% confluency, the cells were split by seeding them on 96-well plates (0.2 mL/well) at a density of 1.5×10^5 cells/mL. After a 24-hour incubation at 37° C., the cells were treated with LPS (1 μg/mL) with or without test compounds in various concentrations. Vehicle control cells were treated with dimethyl sulfoxide alone at a final concentration of 0.1%. Culture media from control and treated cells were collected after 24 hours of incubation and were frozen at −80° C. before analysis. For the determination of NO (as […]), […], aliquots of the thawed culture media were mixed with an equal volume of Griess reagent on a 96-well plate. […] The samples were incubated for 10 minutes at room temperature and then the absorbance was read at 550 nm using a SpectraMax 190 (Molecular Devices, Sunnyvale, CA) plate reader.",
  "data": [
    {"compound": "COc1cc(O)c(CC=C(C)C)c(O)c1-c1cc(-c2ccc(O)cc2)on1", "note": "[isoxazole derivative, 4-(5-(4-hydroxyphenyl)isoxazol-3-yl)-5-methoxy-2-(3-methylbut-2-en-1-yl)benzene-1,3-diol]", "values": [
      {"measurement": "Concentration from which anti-inflammatory activity (decreased NO production) was displayed", "value": "~10", "unit": "µM"}
    ]}
  ]
}
